From patent publication US20120122181A1, “METHOD FOR DETERMINING ANTAGONIST ACTIVITY TO A CYTOKININ RECEPTOR” (SUMITOMO CHEMICAL COMPANY, LIMITED, priority 2001, published 2012)
Values belong to the compound of their own block, whether it stands above or below them.

Key:
[1] = biological target: T1, cytokinin receptor AHK2 Δ (transformed cell TM182-AHK2 Δ) (Arabidopsis thaliana, UniProt Q9C5U2); experiment: Searching agonist-activity to cytokinin receptor (Part 1), optical density of liquid culture; format: cell-based; parameters: one added initiator methionine (ATG added 5' of codon 196) (N); expressed in transfected cells; host or cells: Saccharomyces cerevisiae TM182 (sln1 deletion), plasmid p415CYC-AHK2 Δ; conditions: examinee substance 100 μM final concentration, DOLU+Gul medium, 30° C., 24 hours; DMSO blank 0
T1 sequence (Q9C5U2 196-1176): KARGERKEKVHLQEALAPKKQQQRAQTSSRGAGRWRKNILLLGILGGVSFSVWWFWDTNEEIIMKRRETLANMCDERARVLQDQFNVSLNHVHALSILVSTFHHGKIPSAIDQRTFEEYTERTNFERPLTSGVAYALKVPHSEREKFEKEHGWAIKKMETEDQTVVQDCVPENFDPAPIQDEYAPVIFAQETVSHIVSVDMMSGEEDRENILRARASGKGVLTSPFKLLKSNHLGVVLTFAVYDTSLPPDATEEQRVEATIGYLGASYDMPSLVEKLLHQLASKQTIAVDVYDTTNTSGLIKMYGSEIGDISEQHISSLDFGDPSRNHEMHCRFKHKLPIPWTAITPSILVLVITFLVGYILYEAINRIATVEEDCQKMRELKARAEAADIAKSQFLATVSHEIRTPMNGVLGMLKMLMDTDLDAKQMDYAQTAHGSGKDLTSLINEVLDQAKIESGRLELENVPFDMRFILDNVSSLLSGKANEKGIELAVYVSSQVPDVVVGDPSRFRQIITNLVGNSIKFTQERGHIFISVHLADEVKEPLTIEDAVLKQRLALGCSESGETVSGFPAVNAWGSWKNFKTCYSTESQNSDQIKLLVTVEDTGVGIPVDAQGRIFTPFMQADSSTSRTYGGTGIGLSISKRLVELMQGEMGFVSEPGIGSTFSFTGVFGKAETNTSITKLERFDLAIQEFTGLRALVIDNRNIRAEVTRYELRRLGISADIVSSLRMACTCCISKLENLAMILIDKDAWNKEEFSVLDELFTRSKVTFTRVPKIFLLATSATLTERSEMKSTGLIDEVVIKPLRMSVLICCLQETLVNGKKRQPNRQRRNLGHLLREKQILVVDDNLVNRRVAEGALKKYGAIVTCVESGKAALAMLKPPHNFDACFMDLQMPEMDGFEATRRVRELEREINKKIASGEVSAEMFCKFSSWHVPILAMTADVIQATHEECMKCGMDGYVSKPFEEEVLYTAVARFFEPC
Method: The transformed cells TM182-CRE1, TM182-AHK2, TM182-AHK2 Δ and TM182-AHK3 produced in the example 12 were inoculated in 200 ml of DOLU+Gal culture media and pre-cultured at 30° C. for 36 hours. The pre-cultured solutions were diluted with DOLU+Gul media as to become 0.100 as the optical density (0D600) and further the resultants were diluted with DOLU+Gul media at a dilution rate of 1/200 to obtain diluted pre-cultured solutions.
An assay plate was prepared by filling respective wells of a 96-well plate with 20 μl of solutions which were prepared by diluting DMSO solution (10 mM) of each examinee substance with DOLU+Gul medium at a dilution rate of 1/100, said solutions containing each examinee substance to be 100 μM at the final concentration. […]
The diluted pre-cultured solutions were added in 200 μl each into the respective wells of both assay plates and cultured at 30° C. for 24 hours and then the optical density (0D620) of each well was measured by a plate reader. The agonist-activity of the examinee substances to the cytokinin receptor was detected by comparing the optical density measured in the testing sections to which the examinee substances were added with the optical density measured in the blank sections.

[2] = biological target: T1, cytokinin receptor AHK2 Δ (transformed cell TM182-AHK2 Δ); conditions: DOLU+Gul agar containing 10 μM trans-zeatin, 30° C., 30 hours; compared with media containing no trans-zeatin
Method: (§1) Transformation of TM182 (S1n1 Δ), S1n1 genetically detected strain, [Maeda T et al. Nature: 369 242-245 (1994)] was carried out using the obtained expression plasmid p415CYC-CRE1 (the example 5), p415CYC-AHK2 (the example 11), p415CYC-AHK2Δ (the example 11) and p415CYC-AHK3 (the example 8). The transformation was carried out by employing Polyethylene glycol/lithium acetate (PEG/LiAc)-mediated transformation method according to the description of VII. Library Transformation & Screening Protocols disclosed in […] Two-Hybrid System 3 User Manual p.
(§2) After incubation, the growth state of the transformed cells was observed and photographed by a digital camera.

[3] = biological target: T2, cytokinin receptor CRE1 (transformed cell TM182-CRE1) (Arabidopsis thaliana, UniProt Q9C5U0, S567G/T1018A); conditions: DOLU+Gul agar containing 10 μM trans-zeatin, 30° C., 30 hours; compared with media containing no trans-zeatin
Method: as §1, §2

[4] = biological target: T3, cytokinin receptor AHK2 (transformed cell TM182-AHK2) (Arabidopsis thaliana, UniProt Q9C5U2); conditions: DOLU+Gul agar containing 10 μM trans-zeatin, 30° C., 30 hours; compared with media containing no trans-zeatin
T3 sequence (Q9C5U2 1-1176): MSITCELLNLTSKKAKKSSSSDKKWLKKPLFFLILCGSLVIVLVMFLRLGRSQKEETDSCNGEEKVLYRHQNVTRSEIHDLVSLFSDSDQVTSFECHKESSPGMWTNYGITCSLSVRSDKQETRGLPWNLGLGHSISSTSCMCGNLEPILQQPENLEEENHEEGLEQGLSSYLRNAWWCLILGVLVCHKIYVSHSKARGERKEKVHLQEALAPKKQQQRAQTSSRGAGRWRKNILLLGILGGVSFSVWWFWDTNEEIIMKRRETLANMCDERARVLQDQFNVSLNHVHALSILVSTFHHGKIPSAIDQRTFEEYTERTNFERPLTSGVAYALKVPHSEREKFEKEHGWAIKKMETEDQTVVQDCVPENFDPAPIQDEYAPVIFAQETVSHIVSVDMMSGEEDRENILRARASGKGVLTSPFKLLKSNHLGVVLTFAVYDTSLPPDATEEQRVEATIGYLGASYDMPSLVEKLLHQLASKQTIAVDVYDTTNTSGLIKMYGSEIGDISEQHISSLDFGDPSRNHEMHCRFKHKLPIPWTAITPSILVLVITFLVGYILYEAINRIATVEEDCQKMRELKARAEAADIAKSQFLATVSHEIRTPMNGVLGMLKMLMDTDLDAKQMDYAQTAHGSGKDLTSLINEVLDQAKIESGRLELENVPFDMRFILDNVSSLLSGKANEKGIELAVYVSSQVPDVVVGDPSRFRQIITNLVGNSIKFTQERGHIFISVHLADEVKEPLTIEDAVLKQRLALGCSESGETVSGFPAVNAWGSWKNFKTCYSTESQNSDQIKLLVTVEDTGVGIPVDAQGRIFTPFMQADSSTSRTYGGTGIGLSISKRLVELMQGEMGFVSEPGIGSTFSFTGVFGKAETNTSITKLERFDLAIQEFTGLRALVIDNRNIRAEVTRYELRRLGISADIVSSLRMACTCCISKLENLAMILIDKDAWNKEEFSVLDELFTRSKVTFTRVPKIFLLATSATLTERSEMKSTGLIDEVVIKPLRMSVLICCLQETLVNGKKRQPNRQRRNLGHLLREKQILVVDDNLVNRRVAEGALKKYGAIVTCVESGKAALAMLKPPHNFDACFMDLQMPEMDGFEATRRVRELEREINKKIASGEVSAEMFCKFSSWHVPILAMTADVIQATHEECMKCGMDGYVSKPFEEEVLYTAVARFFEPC
Method: as §1, §2

[5] = biological target: T4, cytokinin receptor AHK3 (transformed cell TM182-AHK3) (Arabidopsis thaliana, UniProt Q9C5U1); conditions: DOLU+Gul agar containing 10 μM trans-zeatin, 30° C., 30 hours; compared with media containing no trans-zeatin
T4 sequence (Q9C5U1 1-1036): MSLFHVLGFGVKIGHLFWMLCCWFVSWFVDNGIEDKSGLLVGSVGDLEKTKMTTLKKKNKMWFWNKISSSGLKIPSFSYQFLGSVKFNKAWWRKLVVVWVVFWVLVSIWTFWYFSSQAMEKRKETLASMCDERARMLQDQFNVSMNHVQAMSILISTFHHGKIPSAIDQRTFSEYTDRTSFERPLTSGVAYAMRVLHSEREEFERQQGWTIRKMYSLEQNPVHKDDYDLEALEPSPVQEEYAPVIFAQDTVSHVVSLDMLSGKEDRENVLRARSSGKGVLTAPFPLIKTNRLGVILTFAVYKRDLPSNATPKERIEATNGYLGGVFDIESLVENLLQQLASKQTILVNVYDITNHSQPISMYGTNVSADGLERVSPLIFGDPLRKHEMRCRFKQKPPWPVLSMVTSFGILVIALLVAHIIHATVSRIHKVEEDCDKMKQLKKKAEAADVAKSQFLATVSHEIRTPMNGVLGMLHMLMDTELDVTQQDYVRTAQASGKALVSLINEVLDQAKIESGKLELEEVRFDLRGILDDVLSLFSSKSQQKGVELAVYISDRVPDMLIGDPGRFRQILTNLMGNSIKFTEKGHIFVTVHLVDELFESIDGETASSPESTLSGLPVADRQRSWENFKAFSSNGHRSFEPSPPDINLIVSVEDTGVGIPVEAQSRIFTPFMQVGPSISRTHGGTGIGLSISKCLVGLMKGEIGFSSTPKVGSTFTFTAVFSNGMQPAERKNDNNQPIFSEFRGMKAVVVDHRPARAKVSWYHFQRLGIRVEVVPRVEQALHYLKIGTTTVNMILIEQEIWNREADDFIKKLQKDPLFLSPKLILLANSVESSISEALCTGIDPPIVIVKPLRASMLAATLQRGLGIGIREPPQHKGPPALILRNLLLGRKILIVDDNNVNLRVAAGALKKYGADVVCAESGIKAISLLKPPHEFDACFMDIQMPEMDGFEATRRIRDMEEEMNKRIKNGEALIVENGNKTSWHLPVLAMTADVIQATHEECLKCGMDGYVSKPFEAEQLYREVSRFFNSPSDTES
Method: as §1, §2

[6] = biological target: T3, cytokinin receptor AHK2 (transformed cell TM182-AHK2); conditions: DOLU+Gul agar, concentrations 1 nM to 100 μM, 30° C., 30 hours
Method: as §2
(§3) The lowest supply concentrations of trans-zeatin and cis-zeatin in which the respective transformed cells could be grown were shown in Table 1.

[7] = biological target: T1, cytokinin receptor AHK2 Δ (transformed cell TM182-AHK2 Δ); conditions: DOLU+Gul agar, concentrations 1 nM to 100 μM, 30° C., 30 hours
Method: as §2, §3

[8] = biological target: T2, cytokinin receptor CRE1 (transformed cell TM182-CRE1); conditions: DOLU+Gul agar, concentrations 1 nM to 100 μM, 30° C., 30 hours
Method: as §2, §3

T2 sequence (Q9C5U0 24-1080 S567G/T1018A): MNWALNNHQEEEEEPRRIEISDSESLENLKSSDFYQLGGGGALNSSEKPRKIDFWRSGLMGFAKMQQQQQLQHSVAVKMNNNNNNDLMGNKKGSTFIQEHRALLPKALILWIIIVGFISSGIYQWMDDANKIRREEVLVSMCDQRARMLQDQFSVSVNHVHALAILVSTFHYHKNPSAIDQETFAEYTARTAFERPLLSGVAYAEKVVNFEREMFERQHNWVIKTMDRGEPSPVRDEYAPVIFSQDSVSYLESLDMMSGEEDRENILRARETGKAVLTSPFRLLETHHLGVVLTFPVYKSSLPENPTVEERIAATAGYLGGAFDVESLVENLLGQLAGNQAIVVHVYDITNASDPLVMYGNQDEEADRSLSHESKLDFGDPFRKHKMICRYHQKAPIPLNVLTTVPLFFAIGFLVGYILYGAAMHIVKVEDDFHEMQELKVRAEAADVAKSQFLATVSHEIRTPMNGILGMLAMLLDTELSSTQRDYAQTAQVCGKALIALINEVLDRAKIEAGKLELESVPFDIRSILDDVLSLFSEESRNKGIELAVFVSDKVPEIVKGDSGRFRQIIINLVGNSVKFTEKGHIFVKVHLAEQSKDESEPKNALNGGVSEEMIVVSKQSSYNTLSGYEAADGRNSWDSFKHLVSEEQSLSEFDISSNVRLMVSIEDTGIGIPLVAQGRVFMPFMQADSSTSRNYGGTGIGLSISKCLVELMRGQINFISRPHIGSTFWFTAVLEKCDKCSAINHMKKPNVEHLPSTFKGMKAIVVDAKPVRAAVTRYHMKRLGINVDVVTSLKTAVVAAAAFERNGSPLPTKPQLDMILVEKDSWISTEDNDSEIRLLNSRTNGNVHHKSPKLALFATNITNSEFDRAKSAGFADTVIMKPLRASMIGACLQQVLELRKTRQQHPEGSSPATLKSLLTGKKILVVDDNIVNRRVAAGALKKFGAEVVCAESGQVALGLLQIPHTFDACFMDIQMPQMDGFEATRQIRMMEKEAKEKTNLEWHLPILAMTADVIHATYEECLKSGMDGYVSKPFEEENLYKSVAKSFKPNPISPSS

SMILES: CC1=CC(=O)CC(C)(C)[C@@]1(O)/C=C/C(C)=C\C(=O)O [Compound A, Abscisic acid]
- optical density (OD620) of the culture solution, TM182-AHK2 Δ [1]: 0

SMILES: C/C(=C\CNc1ncnc2nc[nH]c12)CO [trans-zeatin]
- growth state of transformed cells TM182-AHK2 Δ [2]: high growth
- growth state of transformed cells TM182-CRE1 [3]: high growth
- growth state of transformed cells TM182-AHK2 [4]: high growth
- growth state of transformed cells TM182-AHK3 [5]: high growth
- lowest supply concentration in which the transformed cells could be grown, TM182-AHK2 [6]: 1 µM

- lowest supply concentration in which the transformed cells could be grown, TM182-AHK2 A [7]: 1 µM
- lowest supply concentration in which the transformed cells could be grown, TM182-CRE1 [8]: no growth
SMILES: C/C(=C/CNc1ncnc2nc[nH]c12)CO [cis-zeatin]
